What was measured:
[1] = system: SK-BR-3 cells (HER2 overexpressing cell line); test: SK-BR-3 cell proliferation inhibitory activity (CellTiter-Glo, 120 hours); assay type: cell-based; details: Homo sapiens
In short: (§1)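 Luminescent viability read-out, growth % vs control → GI50, n=3. Seeding: SK-BR-3/BT-474 5000 cells, 48 h pre-plating; N-87 5000, 24 h; HaCaT 3000, 24 h. Dose ranges: 0.2 nM–10 μM (SK-BR-3, BT-474; 3-fold), […]–5 μM (N-87; 5-fold), 0.8 nM–45 μM (HaCaT; 3-fold).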

[2] = system: HaCaT cells (EGFR expressing cell line); test: HaCaT cell proliferation inhibitory activity (CellTiter-Glo, 72 hours); assay type: cell-based; details: Homo sapiens
In short: as §1

Row | Structure (SMILES) | GI50 [1] [nM] | GI50 [2] [nM]
1 | C=CC(=O)N1CCC(Oc2cc3c(Nc4cc(-c5ccco5)ccc4OC4CCOCC4)ncnc3cc2OC)CC1 [Example 258, 1-(4-((4-((5-(furan-2-yl)-2-((tetrahydro-2H-pyran-4-yl)oxy)phenyl)amino)-7-methoxyquinazolin-6-yl)oxy)piperidin-1-yl)prop-2-en-1-one] | 150 to 1000 | ≤ 150
2 | C=CC(=O)N1CCC(Oc2cc3c(Nc4cc(-c5ccco5)ccc4OC4COC4)ncnc3cc2OC)CC1 [Example 255, 1-(4-((4-((5-(furan-2-yl)-2-(oxetan-3-yloxy)phenyl)amino)-7-methoxyquinazolin-6-yl)oxy)piperidin-1-yl)prop-2-en-1-one] | ≤ 150 | ≤ 150
3 | C=CC(=O)N1CCC(Oc2cc3c(Nc4cc(-c5cccs5)ccc4OC4CCOCC4)ncnc3cc2OC)CC1 [Example 257, 1-(4-((7-methoxy-4-((2-((tetrahydro-2H-pyran-4-yl)oxy)-5-(thiophen-2-yl)phenyl)amino)quinazolin-6-yl)oxy)piperidin-1-yl)prop-2-en-1-one] | 150 to 1000 | ≤ 150
4 | C=CC(=O)N1CC(Oc2cc3c(Nc4cc(-c5coc6ccccc56)ccc4OC)ncnc3cc2OC)C1 [Example 40, 1-(3-((4-((5-(benzofuran-3-yl)-2-methoxyphenyl)amino)-7-methoxy-quinazolin-6-yl)oxy)azetidin-1-yl)prop-2-en-1-one] | 150 to 1000 | ≤ 150
5 | C=CC(=O)N1CC(Oc2cc3c(Nc4cc(-c5ccoc5C)ccc4OC)ncnc3cc2OC)C1 [Example 51, 1-(3-((7-methoxy-4-((2-methoxy-5-(2-methylfuran-3-yl)phenyl)amino)quinazolin-6-yl)oxy)azetidin-1-yl)prop-2-en-1-one] | ≤ 150 | ≤ 150
6 | C=CC(=O)N1CCC(Nc2cc3c(Nc4cc(-c5ccco5)ccc4OC)ncnc3cc2OCCN2CCOCC2)CC1 [Example 272, 1-(4-((4-((5-(furan-2-yl)-2-methoxyphenyl)amino)-7-(2-morpholinoethoxy)quinazolin-6-yl)amino)piperidin-1-yl)prop-2-en-1-one] | ≤ 150 | ≤ 150
7 | C=C(CN(C)C)C(=O)N1CCC(Oc2cc3c(Nc4cc(-c5ccco5)ccc4OC)ncnc3cc2OC)CC1 [Example 121, 2-((dimethylamino)methyl)-1-(4-((4-((5-(furan-2-yl)-2-methoxyphenyl)amino)-7-methoxy-quinazolin-6-yl)oxy)piperidin-1-yl)prop-2-en-1-one] | > 1000 | ≤ 150
8 | C=CC(=O)N1CC(Oc2cc3c(Nc4cc(-c5cccc(F)c5Cl)ccc4OC)ncnc3cc2OC)C1 [Example 18, 1-(3-((4-((2′-chloro-3′-fluoro-4-methoxy-[1,1′-biphenyl]-3-yl)amino)-7-methoxy-quinazolin-6-yl)oxy)azetidin-1-yl)prop-2-en-1-one] | ≤ 150 | ≤ 150
9 | C=CC(=O)N1CCC(Oc2cc3c(Nc4cc(-c5ccco5)ccc4OC)ccnc3cc2OC)CC1 [Example 125, 1-(4-((4-((5-(furan-2-yl)-2-methoxyphenyl)amino)-7-methoxy-quinolin-6-yl)oxy)piperidin-1-yl)prop-2-en-1-one] | 150 to 1000 | 150 to 1000
10 | C=CC(=O)N1CCC(Oc2cc3c(Nc4cc(-c5cc(F)cnc5F)ccc4OC)ncnc3cc2OC)CC1 [Example 145, 1-(4-((4-((5-(2,5-difluoropyridin-3-yl)-2-methoxyphenyl)amino)-7-methoxy-quinazolin-6-yl)oxy)piperidin-1-yl)prop-2-en-1-one] | ≤ 150 | ≤ 150
11 | C=CC(=O)N1CCC(Oc2cc3c(Nc4cc(-c5sccc5C)ccc4OC)ncnc3cc2OC)CC1 [Example 82, 1-(4-((7-methoxy-4-((2-methoxy-5-(3-methylthiophen-2-yl)phenyl)amino)quinazolin-6-yl)oxy)piperidin-1-yl)prop-2-en-1-one] | ≤ 150 | ≤ 150
12 | C=CC(=O)N1CCC(Oc2cc3c(Nc4cc(-c5cccc(F)c5F)ccc4OC)ncnc3cc2OC)CC1 [Example 137, 1-(4-((4-((2′,3′-difluoro-4-methoxy-[1,1′-biphenyl]-3-yl)amino)-7-methoxy-quinazolin-6-yl)oxy)piperidin-1-yl)prop-2-en-1-one] | ≤ 150 | ≤ 150
13 | C=CC(=O)N1CCC(Oc2cc3c(Nc4cc(-c5ccccc5F)ccc4OC)ncnc3cc2OC)CC1 [Example 136, 1-(4-((4-((2′-fluoro-4-methoxy-[1,1′-biphenyl]-3-yl)amino)-7-methoxy-quinazolin-6-yl)oxy)piperidin-1-yl)prop-2-en-1-one] | ≤ 150 | ≤ 150
14 | C=CC(=O)N1CCC(Oc2cc3c(Nc4cc(-c5coc6ccccc56)ccc4OC)ncnc3cc2OC)CC1 [Example 73, 1-(4-((4-((5-(benzofuran-3-yl)-2-methoxyphenyl)amino)-7-methoxy-quinazolin-6-yl)oxy)piperidin-1-yl)prop-2-en-1-one] | ≤ 150 | ≤ 150
15 | C=CC(=O)N1CCC(Oc2cc3c(Nc4cc(-c5cccnc5)ccc4OC)ncnc3cc2OC)CC1 [Example 66, 1-(4-((7-methoxy-4-((2-methoxy-5-(pyridin-3-yl)phenyl)amino)quinazolin-6-yl)oxy)piperidin-1-yl)prop-2-en-1-one] | 150 to 1000 | 150 to 1000

Second part, led by results:

Row | GI50 [1] [nM] | Structure (SMILES) | GI50 [2] [nM]
16 | 150 to 1000 | C=CC(=O)N1CC(Oc2cc3c(Nc4cc(-c5cnc(Cl)c(F)c5)ccc4OC)ncnc3cc2OC)C1 [Example 27, 1-(3-((4-((5-(6-chloro-5-fluoropyridin-3-yl)-2-methoxyphenyl)amino)-7-methoxy-quinazolin-6-yl)oxy)azetidin-1-yl)prop-2-en-1-one] | 150 to 1000
17 | ≤ 150 | C=CC(=O)N1CC(Oc2cc3c(Nc4cc(-c5ccc(F)cc5F)ccc4OC)ncnc3cc2OC)C1 [Example 13, 1-(3-((4-((2′,4′-difluoro-4-methoxy-[1,1′-biphenyl]-3-yl)amino)-7-methoxy-quinazolin-6-yl)oxy)azetidin-1-yl)prop-2-en-1-one] | ≤ 150
18 | 150 to 1000 | C=CC(=O)N1CC(Oc2cc3c(Nc4cc(-c5ccc6occc6c5)ccc4OCC)ncnc3cc2OC)C1 [Example 57, 1-(3-((4-((5-(benzofuran-5-yl)-2-ethoxyphenyl)amino)-7-methoxy-quinazolin-6-yl)oxy)azetidin-1-yl)prop-2-en-1-one] | 150 to 1000
19 | > 1000 | C=CC(=O)N1CC[C@H](Oc2cc3c(Nc4cc(-c5ccco5)ccc4OC)ncnc3cc2OC)C1 [Example 132, (S)-1-(3-((4-((5-(furan-2-yl)-2-methoxyphenyl)amino)-7-methoxy-quinazolin-6-yl)oxy)pyrrolidin-1-yl)prop-2-en-1-one] | 150 to 1000
20 | 150 to 1000 | C=CC(=O)N1CCC(Oc2cc3c(Nc4cc(-c5ccc(C)cc5F)ccc4OC)ncnc3cc2OC)CC1 [Example 131, 1-(4-((4-((2′-fluoro-4-methoxy-4′-methyl-[1,1′-biphenyl]-3-yl)amino)-7-methoxy-quinazolin-6-yl)oxy)piperidin-1-yl)prop-2-en-1-one] | 150 to 1000
21 | ≤ 150 | C=CC(=O)N1CCC(Nc2cc3c(Nc4cc(-c5ccco5)ccc4OC)ncnc3cc2OCCOC)CC1 [Example 262, 1-(4-((4-((5-(furan-2-yl)-2-methoxyphenyl)amino)-7-(2-methoxyethoxy)quinazolin-6-yl)amino)piperidin-1-yl)prop-2-en-1-one] | ≤ 150
22 | 150 to 1000 | C=CC(=O)N1CCC(Oc2cc3c(Nc4cc(-c5ccco5)ccc4OC(F)(F)F)ncnc3cc2OC)CC1 [Example 116, 1-(4-((4-((5-(furan-2-yl)-2-(trifluoro-methoxy)phenyl)amino)-7-methoxy-quinazolin-6-yl)oxy)piperidin-1-yl)prop-2-en-1-one] | ≤ 150
23 | ≤ 150 | C=CC(=O)N1CCC(Oc2cc3c(Nc4cc(-c5ccco5)ccc4OC4CC4)ncnc3cc2OC)CC1 [Example 253, 1-(4-((4-((2-cyclopropoxy-5-(furan-2-yl)phenyl)amino)-7-methoxyquinazolin-6-yl)oxy)piperidin-1-yl)prop-2-en-1-one] | ≤ 150
24 | 150 to 1000 | COc1ccc(-c2cccs2)cc1Nc1ncnc2cc(OC)c(OC3CCN(C(=O)/C=C/CN(C)C)CC3)cc12 [Example 119, (E)-4-(dimethylamino) 1-(4-((7-methoxy-4-((2-methoxy-5-(thiophen-2-yl)phenyl)amino)quinazolin-6-yl)oxy)piperidin-1-yl)but-2-en-1-one] | ≤ 150
25 | ≤ 150 | C=CC(=O)N1CCC(Oc2cc3c(Nc4cc(-c5ccco5)ccc4OC4CCN(C)C4)ncnc3cc2OC)CC1 (centres unmarked) [Example 251, 1-(4-((4-((5-(furan-2-yl)-2-((1-methylpyrrolidin-3-yl)oxy)phenyl)amino)-7-methoxyquinazolin-6-yl)oxy)piperidin-1-yl)prop-2-en-1-one] | ≤ 150
26 | ≤ 150 | C=CC(=O)N1CC(Oc2cc3c(Nc4cc(-c5cc(F)ccc5F)ccc4OC)ncnc3cc2OC)C1 [Example 10, 1-(3-((4-((2′,5′-difluoro-4-methoxy-[1,1′-biphenyl]-3-yl)amino)-7-methoxy-quinazolin-6-yl)oxy)azetidin-1-yl)prop-2-en-1-one] | ≤ 150
27 | > 1000 | C=CC(=O)N1CCC(F)(F)C(Oc2cc3c(Nc4cc(-c5ccc(F)cc5F)ccc4OC)ncnc3cc2OC)C1 (centres unmarked) [Example 141, 1-(3-((4-((2′,4′-difluoro-4-methoxy-[1,1′-biphenyl]-3-yl)amino)-7-methoxy-quinazolin-6-yl)oxy)-4,4-difluoro-piperidin-1-yl)prop-2-en-1-one] | 150 to 1000
28 | 150 to 1000 | C=CC(=O)N1CC(Oc2cc3c(Nc4cc(-c5cccc(NC(=O)N6C(=O)OC[C@@H]6c6ccccc6)c5)ccc4OC)ncnc3cc2OC)C1 [Example 237, (S)-N-(3′-((6-((1-acryloylazetidin-3-yl)oxy)-7-methoxyquinazolin-4-yl)amino)-4′-methoxy-[1,1′-biphenyl]-3-yl)-2-oxo-4-phenyloxazolidin-3-carboxamide] | > 1000

Reference: patent US20240246940A1, “HETEROARYL DERIVATIVE COMPOUND AND USE THEREOF” (VORONOI INC., priority 2021, published 2024)
